Reference: patent publication US6033913A, “Detection of ligand Interaction with polymeric material” (New York University, priority 1997, dated 2000)
pKd: −log10 of the molar value.

Assays:
[1] = target: T1, concanavalin A (Canavalia ensiformis, UniProt P02866); assay: biochemical; format: binding; design: purchased Sigma, St. Louis, Mo; conditions: for tension change on removal of divalent cations: buffer 1 exchanged for buffer 2 (without MnCl2 and CaCl2, both removed together)
Text: (§1) Referring again to FIGS. 4 and 5: With a sample strip S mounted between the tips of the arms 148, 168, and reference solution L flowing in the well 210, mechanochemical testing of the sample S is ready to begin. Testing itself consists of two stages. In the first (preparative) stage, the strip is stretched until a maximum spring constant of the strip is obtained, and then is allowed to relax under isometric conditions until a constant level of isometric tension is reached. Isometric condition herein means keeping a fixed distance between tips of the arms 148 and 146. In the second stage relaxed strip is brought into contact with ligand solution and ligand-induced changes of the isometric tension and spring constant are measured.
At the testing stage, ligand-induced changes in F and κ are measured after an exchange in the flow cell of reference solution for that containing ligands. These parameters by themselves can be used to detect binding. However, they also allow estimation of a practically important parameter: ligand-induced strain, εL=(L-L1)/L0, where L1 is the length of the sample in the ligand solution when no force is applied. This can also be calculated by the formula
Ligands are added at the moment indicated by arrows in FIGS. 12, 14, and 16.
A strip of concanavalin A, (Sigma, St. Louis, Mo.) was prepared as described in Example 1 for hexokinase, mounted on the arms 148, 146 and extended by 1.2% in buffer 1 (10 mM HEPES buffer, pH=7.5, containing 0.1 M NaCl and 0.1 mM MnCl2 and CaCl2 each). After relaxation solutions with 0.25 mM, 1.25 mM, 5 mM and 10 mM of methyl-α-D-mannopyranoside (MP) on the same buffer 1 were introduced into the well 210 at the moments indicated by arrows in the FIG. 14.

[2] = test system: yeast hexokinase; assay: Mechanochemical test of yeast hexokinase film with glucose (isometric tension and compliance); format: binding
Text: as §1
Spring constant is measured by applying small deformations to the strip with an amplitude AL much smaller than (L-L0). These deformations cause tension oscillations with amplitude of ΔF. […]
At the testing stage, ligand-induced changes in F and κ are measured after an exchange in the flow cell of reference solution for that containing ligands. […] This can also be calculated by the formula
A film of yeast hexokinase (Sigma Chemical Company, St. Louis, Mo.) was prepared. […] Changes in elasticity and isometric tension in the sample were measured at the moments indicated by arrows and changes in tension and in modulus resulted from such exchange of solutions were measured. […]

[3] = target: T1, concanavalin A; conditions: as compared to MP; Biochem. Biophys. Acta, 165:398 (1968); cited from earlier work

Q: With CO[C@H]1O[C@H](CO)[C@@H](O)[C@H](O)[C@@H]1O [MP, methyl-α-D-mannopyranoside] as the molecule, how does the pKd [1] read?
A: Its pKd is 3.52.

Q: And the “tension change on ligand addition without divalent cations” value ([1]; 10 mM MP in buffer 2)?
A: The value was “reversible drop of tension by ΔF2, similar to the effect, ΔF1, in buffer 1”.

Q: And the “isometric tension change on ligand addition” value ([1]; buffer 1, 0.25, 1.25, 5 and 10 mM MP)?
A: The value was “reduce progressively the isometric tension”.

Q: What about the “reversibility of MP-induced decrease in tension” value ([1]; return to buffer 1) of the same molecule?
A: Its value is “completely reversible”.

Q: Which “inverse tension changes against inverse glucose concentration” value ([2]; Lineweaver-Burk plot, FIG. 13) does the source give for OC[C@H]1OC(O)[C@H](O)[C@@H](O)[C@@H]1O (stereo partly drawn) [glucose] here?
A: Its value is “linear relationship”.

Q: What about the “changes in isometric tension and compliance” value ([2]; hexokinase film strip, varying glucose concentration, 10 mM HEPES, pH=7.5, 0.1 NaCl, extended 2.8%) of the same molecule?
A: The value was “large but reversible changes”.

Q: What about the “ability of binding concanavalin A compared to MP” value [3] of the same molecule?
A: The value was “much lower ability of binding concanavalin A”.

Q: What about the “tension change on introduction of glucose” value ([1]; 5 mM glucose) of the same molecule?
A: The value was “very small tension changes”.

Q: Which “tension change on addition of EDTA” value [1] does the source give for O=C(O)CN(CCN(CC(=O)O)CC(=O)O)CC(=O)O [EDTA] here?
A: The value was “reduces tension still more”.

Q: And the “tension change on introduction of EDTA-free buffer 2 after EDTA” value [1]?
A: The value was “does not affect tension”.

Q: For [Cl][Mn][Cl] [MnCl2], which “tension change on removal of divalent cations” value [1] is on record?
A: The value was “considerable decrease of tension”.

Q: With [Ca+2].[Cl-].[Cl-] [CaC12, CaCl2] as the molecule, how does the “tension change on removal of divalent cations” value [1] read?
A: Its value is “considerable decrease of tension”.
